Measurements as given in paper PMC9516684 (2022).

Columns and labels:
[1] = tested on: AT (DNA, duplex) ATATATATATAT; test: UV-visible absorbance titration 415 nm, Bard fit; conditions: Na+ (20 mM sodium phosphate), 20 mM sodium phosphate pH 7.0, 298 K, per base
[2] = tested on: AT (DNA, duplex) ATATATATATAT; test: luminescence titration 750 nm, Bard fit; conditions: Na+ (20 mM sodium phosphate), 20 mM sodium phosphate pH 7.0, 298 K, per base
[3] = tested on: (5′-CCGGTACCGG)2 (TA step) (DNA, duplex) CCGGTACCGG; test: luminescence titration 750 nm, Bard fit; conditions: Na+ (20 mM sodium phosphate); 20 mM sodium phosphate pH 7.0, 298 K; s 7.6; caption says luminescence 750 nm, column head 415 nm absorbance; per base
[4] = tested on: (5′-CCGGATCCGG)2 (AT step) (DNA, duplex) CCGGATCCGG; test: UV-visible absorbance titration 355 nm, Bard fit; conditions: Na+ (20 mM sodium phosphate); 20 mM sodium phosphate pH 7.0, 298 K; site size s 3.5 (±0.7); per base
[5] = tested on: AT (DNA, duplex) ATATATATATAT; test: UV-visible absorbance titration 355 nm, Bard fit; conditions: Na+ (20 mM sodium phosphate), 20 mM sodium phosphate pH 7.0, 298 K, per base
[6] = tested on: (5′-CCGGATCCGG)2 (AT step) (DNA, duplex) CCGGATCCGG; test: luminescence titration 750 nm, Bard fit; conditions: Na+ (20 mM sodium phosphate); 20 mM sodium phosphate pH 7.0, 298 K; s 5.5; caption says luminescence 750 nm, column head 415 nm absorbance; per base
[7] = tested on: (5′-CCGGTACCGG)2 (TA step) (DNA, duplex) CCGGTACCGG; test: UV-visible absorbance titration 355 nm, Bard fit; conditions: Na+ (20 mM sodium phosphate); 20 mM sodium phosphate pH 7.0, 298 K; site size s 3.17 (±0.07); per base

| Kb ([1]; site size s 4.5 (±0.1)) | Kb ([1]; site size s 6.0 (±0.2)) | Kb ([2]; site size s 3.8 (±0.1)) | Kb ([2]; site size s 5.0 (±0.1)) | Kb [3] | Kb [4] | Kb ([5]; site size s 4.4 (±0.1)) | Kb ([5]; site size s 5.6 (±0.1)) | Kb [6] | Kb ([2]; site size s 4.6 (±0.1)) | Kb ([2]; site size s 7.7 (±0.08)) | Kb [7] | SMILES |
| --- | --- | --- | --- | --- | --- | --- | --- | --- | --- | --- | --- | --- |
| 8.7 (±1.2) × 10^6 M^–1 | 5.1 (±1.6) × 10^6 M^–1 | 8.5 (±0.5) × 10^6 M^–1 | 1.1 (±0.3) × 10^7 M^–1 | – | – | – | – | – | – | – | – | [Os+2].c1ccc2nc3c4cccnc4c4ncccc4c3nc2c1.c1cnc2c(ccc3nccnc32)n1.c1cnc2c(ccc3nccnc32)n1 |
| – | – | – | – | 1.4 (±0.3) × 10^6 M^–1 | 3.8 (±1.5) × 10^6 M^–1 | 2.0 (±0.3) × 10^6 M^–1 | 5.0 (±0.8) × 10^6 M^–1 | 1.0 (±0.2) × 10^6 M^–1 | 4.5 (±1.3) × 10^6 M^–1 | 1.4 (±0.4) × 10^7 M^–1 | 2.2 (±0.4) × 10^6 M^–1 | [Os+2].c1cnc2c(ccc3nccnc32)n1.c1cnc2c(ccc3nccnc32)n1.c1cnc2nc3c4cccnc4c4ncccc4c3nc2c1 |
